The source of these data is publication PMC8284926 (Journal of the American Chemical Society, 2021).

The structures appear in SMILES notation.

Data set [1] has as its system MEFs lacking Pol β (Pol β −/−). The data set is described as follows: Cytotoxicity in Pol β null mouse embryonic fibroblasts. Type of data set: cell-based. Conditions: MMS alone.
The target of the next data set is DNA polymerase β (Pol β) (Homo sapiens, UniProt P06746). Conditions: cited from earlier work.

In the case of `COS(C)(=O)=O` [MMS, methylmethanesulfonate], the “cytotoxicity relative to wild type MEFs” value in data set [1] is recorded as “considerably more toxic”.

Turning to `C=CCc1ccc(O)c(-c2ccc(O)c(CC=C)c2)c1` [honokiol], on DNA polymerase β (Pol β), the “selectivity for Pol β over Pol λ” value was “not selective for Pol β over Pol λ”.
